Measurements reported in PubChem BioAssay AID1288 (Columbia University Molecular Screening Center, 2008).
Activity calls are given as the source filed them. The rule behind the calls is not given here.

Assay: inhibitors of TNFa-induced E-selectin expression, confirmation, imaging, retest plus dose response, cell count (AID 1288);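 note: 0% = stimulated vehicle wells and 100% = unstimulated vehicle wells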
Details: human endothelial cells, TNFa-induced E-selectin, imaging; at 2 µM; stronger effect = higher value
In the case of `C=CCN1C(c2ccccc2)=CS/C1=C(\C#N)c1nnc2n1CCCCC2`, the inhibition is reported as 34% (inactive). For `CCCCCn1c(SCC#N)nc2cc(C(=O)NCC3CCCO3)ccc2c1=O` (stereo not drawn), the inhibition was 7.32% (inactive). In the case of `COc1ccc(C(=O)C(CN2CCOCC2)c2ccccc2)cc1F` (stereo not drawn), the inhibition is reported as 0.43% (inactive). With `COc1ccccc1Cc1nc(-c2ccncc2)no1` the inhibition was 13.1% (inactive). With `C1=C(c2ccc(-c3ccccc3)cc2)Nc2ncnn2C1c1ccco1` (stereo not drawn) the inhibition was 26.2% (inactive). With `COc1ccc(CCNC(=O)C(=O)NCc2ccc(C)cc2)cc1OC` the inhibition was 8.92% (inactive). In the case of `O=C(COc1ccc(-c2nnco2)cc1)NCc1ccccc1Cl`, the inhibition is reported as 10.1% (inactive). With `CCCCCC1NC(=O)NC1CCCCCC(=O)O` (stereo not drawn) the inhibition was 0.1% (inactive). With `COc1ccc(-n2c(C)cc(C(=O)COc3ccc(C)nc3[N+](=O)[O-])c2C)cc1` the inhibition was 31.4% (inactive). With `Nc1cccc(-n2nncc2-c2ccc(Cl)cc2)c1` the inhibition was 18.2% (inactive). For `Cc1ccc(C(=O)Nc2ccc(O)cc2C(=O)O)cc1`, the inhibition was 3% (inactive). With `CCN(CC)S(=O)(=O)c1ccc2[nH]c(=O)cc(C(=O)Nc3cccc(C(C)=O)c3)c2c1` the inhibition was 8.83% (inactive). For `O=c1cc(-c2ccc(F)cc2)oc2ccccc12`, the inhibition was 0.15% (inactive). In the case of `O=C(Cn1cc(C(=O)C(F)(F)F)c2cc(Br)ccc21)N1CCOCC1`, the inhibition is reported as 7.56% (inactive). With `O=c1cc(O)n(-c2ccc(F)cc2)c(=S)[nH]1` the inhibition was -0.2% (inactive). In the case of `O=C(NCN1C(=O)C2C3C=CC(C3)C2C1=O)Nc1nncs1` (stereo not drawn), the inhibition is reported as 1.86% (inactive). With `CCS(=O)(=O)Nc1ccc(-c2cc(-c3ccccc3)c3cc(C)ccc3n2)cc1` the inhibition was 0.49% (inactive). In the case of `CC1=Nc2ccccc2/C1=C/c1c(N)n2c(S(=O)(=O)CC(C)C)nsc2nc1=O`, the inhibition is reported as 2.29% (inactive). In the case of `CCOC(=O)N1CCN(C(=O)C2CCN(S(=O)(=O)c3cc(OC)ccc3OC)CC2)CC1`, the inhibition is reported as 1.55% (inactive). With `O=C(CN(CC1CCCO1)C(=O)CCC(=O)Nc1nccs1)NCc1ccc2c(c1)OCO2` (stereo not drawn) the inhibition was 33.3% (inactive). With `Cc1cc([N+](=O)[O-])nn1CCCC(=O)Nc1sc2c(c1C(N)=O)CCC(C)C2` (stereo not drawn) the inhibition was 1.33% (inactive). For `O=C(Nc1nc(-c2ccncc2)cs1)c1ccc(S(=O)(=O)N2CCOCC2)cc1`, the inhibition was 1.3% (inactive). With `Cc1cccc(C)c1NC(=O)CN(C)C(=O)/C=C/c1cccs1` the inhibition was 1.62% (inactive). With `Cc1ccc(/C=C2\SC(N)=NC2=O)s1` the inhibition was 1.87% (inactive). With `Cc1ccc(/C=C/C(=O)C2C(=O)c3ccccc3C2=O)cc1` the inhibition was 23.7% (inactive). For `Brc1ccc(C2=CC(c3cccs3)n3ncnc3N2)cc1` (stereo not drawn), the inhibition was 13.5% (inactive). With `COc1ccc(-n2nnnc2SCc2nc(N)nc(N3CCOCC3)n2)cc1` the inhibition was 33.7% (inactive). For `O=C(c1ccc(Cl)cc1)N1CCCC(c2ccccc2)=N1`, the inhibition was 10% (inactive). In the case of `Nc1ccc2c(c1)N1CCN=C1S2`, the inhibition is reported as 11.1% (inactive). In the case of `Cc1ccc(-n2c(SCC(=O)Nc3ccc4c(c3)OCCO4)nnc2-c2ccco2)cc1`, the inhibition is reported as 5.17% (inactive). For `CCN(CC)CCNC(=O)CS(=O)Cc1nc(-c2ccccc2Cl)oc1C` (stereo not drawn), the inhibition was 3.34% (inactive). In the case of `CCOC(=O)N1CCN(C(=O)c2ccc(Oc3ccc([N+](=O)[O-])cc3)cc2)CC1`, the inhibition is reported as 18.9% (inactive). For `CCOC(=O)C1CCCN(Cc2ccccc2F)C1` (stereo not drawn), the inhibition was 30.6% (inactive). For `O=C(CSc1nnc(CNc2ccc(F)cc2)o1)N1CCCc2ccccc21`, the inhibition was 2.29% (inactive). With `CCCCNc1nc(CC)c2c(c1C#N)CCCC2` the inhibition was 4.98% (inactive). In the case of `N#CC1=C(N)Oc2cc(Nc3ccccc3)ccc2C1c1ccncc1` (stereo not drawn), the inhibition is reported as 4.14% (inactive). In the case of `COc1ccc(C(=O)NCCNC(C)=O)cc1S(=O)(=O)NCc1ccc(Cl)cc1`, the inhibition is reported as 14.8% (inactive). For `CCN(CC)c1ccc(C2C(C(=O)OCCOC)=C(C)NC3=C2C(=O)CC(C)(C)C3)cc1` (stereo not drawn), the inhibition was -4.2% (inactive). With `CCCOC(=O)c1ccc(Cl)c(NC(=O)c2ccc(-c3ccccc3)cc2)c1` the inhibition was 1.66% (inactive). In the case of `OCCNCCOc1ccc(Cl)c(Cl)c1`, the inhibition is reported as 1.74% (inactive). In the case of `Cc1cc(C)cc(C(=O)Oc2coc(CSc3nnc(NC(=O)C4CC4)s3)cc2=O)c1`, the inhibition is reported as 6.25% (inactive). With `COc1ccc(C(=O)/C=C/Nc2ccc([N+](=O)[O-])cc2C)c(OC)c1` the inhibition was 26.8% (inactive). With `O=C(Nc1ccc(Cl)cc1)Nc1nnc(CSc2ccc(Cl)cc2)s1` the inhibition was 6.9% (inactive). For `CC(=O)c1ccc(NC(=O)Nc2ccc([N+](=O)[O-])cc2C)cc1`, the inhibition was 48% (inactive). With `C/C(=N\Nc1cc(-c2ccccc2)nc(-c2ccccc2)n1)c1ccc(O)c(C)c1` the inhibition was 5.91% (inactive). For `O=C(c1cccc(F)c1)N1CCN(c2cc(N3CCCCC3)c(F)cc2[N+](=O)[O-])CC1`, the inhibition was 4.49% (inactive). For `Cc1nnc(SCC(=O)N2CC(=O)Nc3ccccc32)n1C`, the inhibition was 41% (inactive). For `Cc1c(NC(=O)CN2CC(C)OC(C)C2)c(=O)n(-c2ccccc2)n1C` (stereo not drawn), the inhibition was 35.8% (inactive). With `O=C(NCCN1C(=O)CSC1=O)c1ccccc1` the inhibition was 1.16% (inactive). For `C=CCNS(=O)(=O)c1nc(C)c(Cl)c(C)c1C#N`, the inhibition was 0.74% (inactive). In the case of `CC(=O)Nc1ccccc1Sc1ccc2c3c(cccc13)C(=O)N(c1ccc(C)cc1)C2=O`, the inhibition is reported as -0.84% (inactive). In the case of `CCOC(=O)Cc1csc(NC(=O)COc2ccc(OC)cc2)n1`, the inhibition is reported as 6.28% (inactive). In the case of `Cc1cc([N+](=O)[O-])nn1CC(=O)Nc1sc2c(c1C(N)=O)CCCC2`, the inhibition is reported as 18.3% (inactive). For `COc1ccccc1CNC(=O)CSc1nnc2ccc(-c3cccnc3)nn12`, the inhibition was 2.18% (inactive). For `c1ccc(Nc2nc3ccccc3n3cnnc23)cc1`, the inhibition was 6.89% (inactive). In the case of `COc1ccc(C(=O)OCCNC(=O)c2c(Cl)nc3ccccn23)cc1`, the inhibition is reported as 3.04% (inactive). With `CCc1ccc(CC2S/C(=C(\C#N)C(C)=O)NC2=O)cc1` (stereo not drawn) the inhibition was 5.01% (inactive). For `COCCCNCCCCOc1ccc(OCc2ccccc2)cc1`, the inhibition was -0.12% (inactive). With `CCC(=O)Nc1nnc(-c2ccccn2)o1` the inhibition was 14.7% (inactive). For `CCN(C(=O)COC(=O)c1cc(C)n(-c2ccc(F)cc2)c1C)C1CCS(=O)(=O)C1` (stereo not drawn), the inhibition was 2.1% (inactive). For `COc1ccccc1N1CCN(c2cc(N3CCCC3)nc(C)n2)CC1`, the inhibition was -3.57% (inactive). In the case of `Cc1ccc(-c2cc(NC(=O)CCl)n(-c3ccccc3)n2)cc1`, the inhibition is reported as -2.61% (inactive). With `O=c1c2cccnc2[nH]c(=S)n1CCCN1CCN(c2ccc(F)cc2)CC1` the inhibition was 1.58% (inactive). For `CCOC(=O)C1CCCN(c2ncnc3c2cnn3-c2ccc(Cl)cc2)C1` (stereo not drawn), the inhibition was 38.5% (inactive). In the case of `CCCCCCOC(=O)C1=C(C)NC(=O)NC1c1ccc(O)cc1` (stereo not drawn), the inhibition is reported as 13.9% (inactive). In the case of `O=C(NCc1nc(-c2ccccc2)no1)c1ccc2c(c1)OCO2`, the inhibition is reported as 24.1% (inactive). In the case of `CCc1cc[n+](CC(=O)Nc2ccc(Cl)cc2Cl)cc1`, the inhibition is reported as 5.98% (inactive). With `Cc1ccc(CNC(=O)C2CCN(S(=O)(=O)c3c(C)noc3/C=C/c3ccco3)CC2)cc1` the inhibition was 4.12% (inactive). In the case of `CCOC(=O)c1sc2nc(CSc3nc4ccccc4n3CC)[nH]c(=O)c2c1C`, the inhibition is reported as -2.72% (inactive). For `Cc1ccccc1OCCCC(=O)Nc1ccc(N2CCOCC2)cc1`, the inhibition was 4.18% (inactive). For `O=C(CCc1ccccc1)NCCC1=CCCCC1`, the inhibition was 6.52% (inactive). With `O=S(=O)(/N=C(/Nc1ccccc1)c1ccccc1)c1cccs1` the inhibition was 5.98% (inactive). In the case of `COc1ccc(-n2c(SCC(=O)NCc3ccco3)nc3c([nH]c4ccccc43)c2=O)cc1`, the inhibition is reported as 1.34% (inactive). For `C=CCN(CC=C)C(=O)Nc1cc(Cl)ccc1OC`, the inhibition was 15.5% (inactive). In the case of `Cc1cc(C(=O)CN2C(=O)NC(c3ccccc3)(c3ccccc3)C2=O)c(C)n1Cc1ccco1`, the inhibition is reported as -3.9% (inactive). For `COc1cc(/C=C2\SC(=S)N(CC(=O)Nc3ccc(O)cc3)C2=O)cc(OC)c1OC`, the inhibition was -1.6% (inactive). For `COc1ccccc1C(=O)NC(CCSC)C(=O)OCC(=O)NC(=O)NCc1ccco1` (stereo not drawn), the inhibition was 28% (inactive). With `COc1cccc(C(C(=O)NC(C)(C)C)N(C(=O)CCC(=O)Nc2cc(C)on2)C2CC2)c1OC` (stereo not drawn) the inhibition was 2.4% (inactive). For `Cc1cc(OCC(=O)Nc2ccncc2)c(C)cc1Br`, the inhibition was 3.41% (inactive). For `COc1cc(-c2noc(CCC(=O)Nc3cccnc3)n2)cc(OC)c1OC`, the inhibition was 33.6% (inactive). With `Cc1cc(NC(=O)CCc2ccc(S(=O)(=O)N3CCOCC3)cc2)n(-c2ccccc2)n1` the inhibition was -9.97% (inactive). In the case of `CCCC(CCC)C(=O)NNc1cc(=O)c2c(=O)n(C)c(=O)n(C)c2[nH]1`, the inhibition is reported as 5.15% (inactive). For `O=C(CCn1c2c(c3ccccc31)CCCC2)NNC(=O)c1ccccc1[N+](=O)[O-]`, the inhibition was 2% (inactive). With `COc1ccc(-c2nc(CNS(=O)(=O)c3ccc(OC)c(OC)c3)cs2)cc1` the inhibition was 8% (inactive). With `COc1cccc(-c2cnc(NCc3cc(Cl)ccc3O)n2C)c1` the inhibition was 3.22% (inactive). For `COc1ccc(C2N=C(N)N=C(N)N2c2ccccc2)cc1OC` (stereo not drawn), the inhibition was 23% (inactive). For `O=C1N(c2ccccc2)C2CS(=O)(=O)CC2N1c1ccc(Br)cc1` (stereo not drawn), the inhibition was 10.8% (inactive). With `Cc1c(NC(=O)c2c(N)n(-c3ccccc3)c3nc4ccccc4nc23)c(=O)n(-c2ccccc2)n1C` the inhibition was 4.61% (inactive). For `Cc1ccc2cc3c(NC(=O)C(C)C)nn(C)c3nc2c1`, the inhibition was 9.56% (inactive). In the case of `O=C(Nc1ccc(-c2nc3cccnc3s2)cc1)c1ccc(Br)o1`, the inhibition is reported as 5.96% (inactive). In the case of `CC12CCC3(CO)COC(c4ccccc4O1)C2C3` (stereo not drawn), the inhibition is reported as 13.6% (inactive). For `Cc1cc(N2CCCCC2)nc(NCc2ccccc2)n1`, the inhibition was 36.1% (inactive). In the case of `Cn1c(SCC(=O)N2CCOCC2)nnc1-c1cccc(NC(=O)c2ccccc2)c1`, the inhibition is reported as -2.57% (inactive). In the case of `COc1ccc(N=C2SCC(=O)N2c2ccc(OC)cc2)cc1`, the inhibition is reported as -8.28% (inactive). With `CN1CCC(N(C)C(=S)NC(=O)C23CC4CC(CC(C4)C2)C3)CC1` the inhibition was 28.5% (inactive). In the case of `CCOC(=O)c1c(NC(=O)CSc2nnc(CNc3ccc(C)cc3C)o2)sc(C)c1C`, the inhibition is reported as 2.5% (inactive). For `COc1ccc(C2(CNC(=O)c3cc([N+](=O)[O-])cc([N+](=O)[O-])c3)CCCC2)cc1OC`, the inhibition was 4.01% (inactive). In the case of `CC(C)(C)OC(=O)NCC(=O)N1CCC(C(=O)O)CC1`, the inhibition is reported as -3.45% (inactive).
